Values joined by “and” are separate entries in the source; they are usually repeats but may differ in a detail not shown here. Equal values may be shown once. Toxic doses and inconclusive results are not listed.
Tested on: P388 leukemia ip, CD2F1 mice, survival T/C
Experiment: NCI In Vivo Anticancer Drug Screen. Data for tumor model P388 Leukemia (intraperitoneal) in CD2F1 (CDF1) mice
Settings: endpoint: median survival time, higher = longer survival
Summary of the method: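 Mice carrying the transplanted tumor received test compound or vehicle. Survival was recorded in each group, and the value is the treated-group measurement divided by that of the vehicle-treated control group.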

[1] = dose: 60.0 mg/kg/injection, schedule: Q01DX005 (ip), vehicle: saline with Tween-80
[2] = dose: 120.0 mg/kg/injection, schedule: Q01DX005 (ip), vehicle: saline with Tween-80
[3] = dose: 240.0 mg/kg/injection, schedule: Q01DX005 (ip), vehicle: saline with Tween-80
[4] = dose: 50.0 mg/kg/injection, schedule: Q01DX009 (ip), vehicle: Klucel (hydroxypropylcellulose) (HPC)
[5] = dose: 100.0 mg/kg/injection, schedule: Q01DX009 (ip), vehicle: Klucel (hydroxypropylcellulose) (HPC)
[6] = dose: 200.0 mg/kg/injection, schedule: Q01DX009 (ip), vehicle: Klucel (hydroxypropylcellulose) (HPC)
[7] = dose: 12.5 mg/kg/injection, schedule: Q01DX005 (ip), vehicle: Klucel (hydroxypropylcellulose) (HPC)
[8] = dose: 25.0 mg/kg/injection, schedule: Q01DX005 (ip), vehicle: Klucel (hydroxypropylcellulose) (HPC)
[9] = dose: 50.0 mg/kg/injection, schedule: Q01DX005 (ip), vehicle: Klucel (hydroxypropylcellulose) (HPC)
[10] = dose: 100.0 mg/kg/injection, schedule: Q01DX005 (ip), vehicle: Klucel (hydroxypropylcellulose) (HPC)
[11] = dose: 200.0 mg/kg/injection, schedule: Q01DX005 (ip), vehicle: Klucel (hydroxypropylcellulose) (HPC)

## COc1cccc(C(Nc2nncs2)Nc2nncs2)c1[N+](=O)[O-]
[1]
  T/C: 98 % of control
[2]
  T/C: 98 % of control
[3]
  T/C: 101 % of control

## O=C(O)CC[P+](c1ccccc1)(c1ccccc1)c1ccccc1
dose: 25.0 mg/kg/injection, schedule: Q01DX009 (ip), vehicle: water
  T/C: 105 % of control
dose: 50.0 mg/kg/injection, schedule: Q01DX009 (ip), vehicle: water
  T/C: 102 % of control
dose: 100.0 mg/kg/injection, schedule: Q01DX009 (ip), vehicle: water
  T/C: 105 % of control
dose: 200.0 mg/kg/injection, schedule: Q01DX009 (ip), vehicle: water
  T/C: 95 % of control
dose: 400.0 mg/kg/injection, schedule: Q01DX009 (ip), vehicle: water
  T/C: 94 % of control

## CCc1cccc(CC)c1NC(=S)Nc1c(C)n(C)n(-c2ccccc2)c1=O
[4]
  T/C: 106 % of control
[5]
  T/C: 103 % of control
[6]
  T/C: 95 % of control

## CCCCCCCCCCCCCCCCCC(=O)N[C@@H](Cc1ccc(N(CCCl)CCCl)cc1)C(=O)NCCCCCC
dose: 2.12 mg/kg/injection, schedule: Q01DX009 (ip), vehicle: saline
  T/C: 109 % of control
dose: 2.12 mg/kg/injection, schedule: Q03HX008 (ip), vehicle: saline
  T/C: 90 % of control
dose: 4.24 mg/kg/injection, schedule: Q01DX009 (ip), vehicle: saline
  T/C: 113 % of control
dose: 4.24 mg/kg/injection, schedule: Q03HX008 (ip), vehicle: saline
  T/C: 100 % of control
dose: 8.48 mg/kg/injection, schedule: Q03HX008 (ip), vehicle: saline
  T/C: 100 % of control
dose: 16.95 mg/kg/injection, schedule: Q03HX008 (ip), vehicle: saline
  T/C: 100 % of control
dose: 33.9 mg/kg/injection, schedule: Q03HX008 (ip), vehicle: saline
  T/C: 90 % of control
dose: 67.8 mg/kg/injection, schedule: Q03HX008 (ip), vehicle: saline
  T/C: 90 % of control

## C/C(=N\O)C1CCN(Cc2ccccc2)CC1
[7]
  T/C: 105 % of control
[8]
  T/C: 110 % of control
[9]
  T/C: 100 % of control and 105 % of control

## COC(=O)C12CN3CC(C)(C1)C(=O)C(C)(C3)C2=O (stereo not drawn)
dose: 30.0 mg/kg/injection, schedule: Q01DX005 (ip), vehicle: Klucel (hydroxypropylcellulose) (HPC)
  T/C: 100 % of control
dose: 60.0 mg/kg/injection, schedule: Q01DX005 (ip), vehicle: Klucel (hydroxypropylcellulose) (HPC)
  T/C: 103 % of control and 107 % of control
dose: 120.0 mg/kg/injection, schedule: Q01DX005 (ip), vehicle: Klucel (hydroxypropylcellulose) (HPC)
  T/C: 107 % of control
dose: 240.0 mg/kg/injection, schedule: Q01DX005 (ip), vehicle: Klucel (hydroxypropylcellulose) (HPC)
  T/C: 89 % of control

## CN(C)CCOc1cnc2ccc(Cl)cc2n1
[9]
  T/C: 88 % of control
[10]
  T/C: 88 % of control

## Cc1oc2ccccc2c(=O)c1Cn1cnc2ccc([N+](=O)[O-])cc21
[1]
  T/C: 102 % of control
[2]
  T/C: 93 % of control
[3]
  T/C: 91 % of control

## CCSCC1C(=O)C23CC1CCC2C12COC(O)C1C(C)(C)C(O)CC2OC3=O (stereo not drawn)
dose: 3.12 mg/kg/injection, schedule: Q01DX009 (ip), vehicle: Klucel (hydroxypropylcellulose) (HPC)
  T/C: 103 % of control
dose: 6.25 mg/kg/injection, schedule: Q01DX009 (ip), vehicle: Klucel (hydroxypropylcellulose) (HPC)
  T/C: 107 % of control
dose: 12.5 mg/kg/injection, schedule: Q01DX009 (ip), vehicle: Klucel (hydroxypropylcellulose) (HPC)
  T/C: 103 % of control
[4]
  T/C: 109 % of control
[5]
  T/C: 107 % of control

## CNC(=O)OCc1c(COC(=O)NC)c2n(c1C)CCc1ccccc1-2
dose: 12.5 mg/kg/injection, schedule: Q01DX009 (ip), vehicle: distilled water + Tween-80
  T/C: 153 % of control

## CCOC(=O)c1c(C(C)=O)cnc2c(C#N)cnn12
dose: 50.0 mg/kg/injection, schedule: Q01DX005 (ip), vehicle: saline with Tween-80
  T/C: 98 % of control
dose: 100.0 mg/kg/injection, schedule: Q01DX005 (ip), vehicle: saline with Tween-80
  T/C: 98 % of control
dose: 200.0 mg/kg/injection, schedule: Q01DX005 (ip), vehicle: saline with Tween-80
  T/C: 91 % of control

## C/C=C/[Se]c1ccccc1
dose: 6.25 mg/kg/injection, schedule: Q01DX009 (ip), vehicle: saline with Tween-80
  T/C: 103 % of control
dose: 12.5 mg/kg/injection, schedule: Q01DX009 (ip), vehicle: saline with Tween-80
  T/C: 106 % of control
dose: 25.0 mg/kg/injection, schedule: Q01DX009 (ip), vehicle: saline with Tween-80
  T/C: 103 % of control
dose: 100.0 mg/kg/injection, schedule: Q01DX009 (ip), vehicle: saline with Tween-80
  T/C: 105 % of control and 107 % of control and 121 % of control

## CC(C)(C)C(=O)Nc1ccccc1-c1ccccc1
dose: 100.0 mg/kg/injection, schedule: Q04DX003 (ip), vehicle: saline
  T/C: 93 % of control
dose: 200.0 mg/kg/injection, schedule: Q04DX003 (ip), vehicle: saline
  T/C: 92 % of control
dose: 400.0 mg/kg/injection, schedule: Q04DX003 (ip), vehicle: saline
  T/C: 94 % of control

## COc1ccc2c(c1)-c1nn(CCCN(C)C)c3ccc([N+](=O)[O-])c(c13)N2
dose: 4.5 mg/kg/injection, schedule: Q01DX005 (ip), vehicle: water
  T/C: 169 % of control
dose: 6.25 mg/kg/injection, schedule: Q01DX005 (ip), vehicle: water
  T/C: 189 % of control
dose: 7.5 mg/kg/injection, schedule: Q01DX005 (ip), vehicle: water
  T/C: 181 % of control
dose: 12.5 mg/kg/injection, schedule: Q01DX005 (ip), vehicle: water
  T/C: 213 % of control and 216 % of control and 227 % of control
dose: 21.0 mg/kg/injection, schedule: Q01DX005 (ip), vehicle: water
  T/C: 253 % of control
dose: 25.0 mg/kg/injection, schedule: Q01DX005 (ip), vehicle: water
  T/C: 261 % of control
dose: 35.0 mg/kg/injection, schedule: Q01DX005 (ip), vehicle: water
  T/C: 290 % of control

## O=C(Nc1ccccc1[N+](=O)[O-])C1C(=O)C(=O)N(c2ccccc2[N+](=O)[O-])C1=O (stereo not drawn)
[4]
  T/C: 99 % of control
[5]
  T/C: 108 % of control
[6]
  T/C: 99 % of control

## CNC(=O)OC1/C(C)=C\C(C)C(O)C(OC)CC(C)CC2=C(OC)C(=O)C=C(C2=O)N(C)C(=O)/C(C)=C/C=C\C1OC (stereo not drawn)
dose: 3.12 mg/kg/injection, schedule: Q01DX009 (ip), vehicle: DMSO
  T/C: 110 % of control and 98 % of control
dose: 6.25 mg/kg/injection, schedule: Q01DX009 (ip), vehicle: DMSO
  T/C: 99 % of control and 109 % of control and 110 % of control
dose: 12.5 mg/kg/injection, schedule: Q01DX009 (ip), vehicle: DMSO
  T/C: 104 % of control and 122 % of control and 123 % of control
dose: 25.0 mg/kg/injection, schedule: Q01DX009 (ip), vehicle: DMSO
  T/C: 109 % of control and 115 % of control and 122 % of control

## C[C@@]1(CO)[C@H](O)CC[C@@]2(C)[C@H]1CC[C@H]1C[C@@H]3C[C@@]12CC[C@@]3(O)COC(=O)CN
dose: 5.0 mg/kg/injection, schedule: Q03HX027 (ip), vehicle: saline + alcohol
  T/C: 113 % of control
dose: 10.0 mg/kg/injection, schedule: Q03HX027 (ip), vehicle: saline + alcohol
  T/C: 118 % of control
dose: 12.5 mg/kg/injection, schedule: Q01DX009 (ip), vehicle: saline
  T/C: 105 % of control and 107 % of control
dose: 15.0 mg/kg/injection, schedule: Q01DX009 (ip), vehicle: saline + alcohol
  T/C: 118 % of control
dose: 25.0 mg/kg/injection, schedule: Q01DX005 (iv), vehicle: saline
  T/C: 105 % of control
dose: 25.0 mg/kg/injection, schedule: Q01DX009 (ip), vehicle: saline
  T/C: 107 % of control and 122 % of control
dose: 30.0 mg/kg/injection, schedule: Q01DX009 (ip), vehicle: saline + alcohol
  T/C: 117 % of control
dose: 40.0 mg/kg/injection, schedule: Q03HX027 (ip), vehicle: saline + alcohol
  T/C: 106 % of control
dose: 50.0 mg/kg/injection, schedule: Q01DX005 (iv), vehicle: saline
  T/C: 99 % of control
dose: 50.0 mg/kg/injection, schedule: Q01DX009 (ip), vehicle: saline
  T/C: 114 % of control
dose: 100.0 mg/kg/injection, schedule: Q01DX005 (iv), vehicle: saline
  T/C: 101 % of control
dose: 100.0 mg/kg/injection, schedule: Q01DX009 (ip), vehicle: saline
  T/C: 122 % of control
dose: 120.0 mg/kg/injection, schedule: Q01DX009 (ip), vehicle: saline + alcohol
  T/C: 95 % of control
dose: 200.0 mg/kg/injection, schedule: Q01DX005 (iv), vehicle: saline
  T/C: 115 % of control

## CCCCC(=O)N1SC(NC(=O)OC)=Nc2ccccc21
[9]
  T/C: 101 % of control
[10]
  T/C: 100 % of control
[11]
  T/C: 109 % of control

## C=C1C(=O)OC2C1C(OC(=O)/C(C)=C/C)CC1(C)C(O)CCC(=C)C21 (stereo not drawn)
[7]
  T/C: 106 % of control
[8]
  T/C: 107 % of control
[9]
  T/C: 114 % of control
[10]
  T/C: 107 % of control
[11]
  T/C: 98 % of control

Source: PubChem BioAssay AID330 (DTP/NCI, 2004)
